Source: publication PMC9403987 (Frontiers in Oncology, 2022)

Key:
Experiment in all cases: Cell proliferation assay
Assay type in all cases: cell-based, Homo sapiens
[1] = system: CHP-212; conditions: CHP-212, brain, neuroblastoma, 72 hours
Description: (§1) To quantify cell proliferation, either the nuclei of live cells were counted following staining with 4’,6-diamidino-2-phenylindole (DAPI; Sigma-Aldrich, Burlington, MA, USA), or metabolically active cells were detected using a CellTiter-Glo assay (Promega Corporation, Madison, WI, USA). Cells from a range of human and mammalian tumor cell lines (American Type Culture Collection, Manassas, VA, USA) were seeded at 4000 cells per well in 100 μL of culture medium in a 96-well plate and incubated overnight at 37°C with 5% CO2. […] In the DAPI staining method, cells were washed using 1× phosphate-buffered saline (PBS; Gibco Thermo Fisher Scientific, Waltham, MA, USA), fixed with 4% formaldehyde, permeabilized with 0.2% Triton X-100 (Sigma-Aldrich), washed again, and stained with 1 μg/mL DAPI to visualize cell nuclei. Cells were washed with 1× PBS three times, and 100 μL 1× PBS was added to each well. Plates were scanned using an IN Cell Analyzer 2200 (GE Healthcare Life Sciences, Chicago, IL, USA) and the number of cells per well was recorded. In the CellTiter-Glo assay, 60 μL of CellTiter-Glo luminescent solution was added to each well after incubation with the test compounds, and the assay plate was scanned using a Tecan Infinite M1000 PRO microplate reader (Tecan Group AG, Männedorf, Switzerland) to record luminescent signals.

[2] = system: COLO 205; conditions: COLO 205, colon carcinoma, 72 hours
Description: as §1

[3] = system: DBTRG-05MG; conditions: brain, glioblastoma, 72 hours
Description: as §1

[4] = system: DLD-2; conditions: DLD-2, colorectal carcinoma, 72 hours
Description: as §1

[5] = system: Daoy; conditions: brain, desmoplastic cerebellar medulloblastoma, 72 hours
Description: as §1

[6] = system: HCC827; conditions: HCC827, lung carcinoma, 72 hours
Description: as §1

[7] = system: HCCC9810; conditions: HCCC9810, liver, hepatocellular carcinoma, 72 hours
Description: as §1

[8] = system: HCT15; conditions: HCT15, colorectal carcinoma, 72 hours
Description: as §1

[9] = system: HCT8; conditions: HCT8, colorectal carcinoma, 72 hours
Description: as §1

[10] = system: HLE; conditions: liver, hepatocellular carcinoma, 72 hours
Description: as §1

[11] = system: HLF; conditions: lung, epidermoid carcinoma, 72 hours
Description: as §1

[12] = system: HTC116; conditions: HTC116, colorectal carcinoma, 72 hours
Description: as §1

[13] = system: LN229; conditions: LN229, brain, glioblastoma, 72 hours
Description: as §1

[14] = system: LS174T; conditions: colon carcinoma, 72 hours
Description: as §1

[15] = system: MCF-10A; conditions: breast, non-malignant mammary epithelial, 72 hours
Description: as §1

[16] = system: MDA-MB-468; conditions: MDA-MB-468, breast carcinoma, 72 hours
Description: as §1

[17] = system: MOG-G-UVW; conditions: brain, grade III astrocytoma, 72 hours
Description: as §1

[18] = system: NCI-H1703; conditions: NCI-H1703, lung, NSCLC, 72 hours
Description: as §1

[19] = system: NCI-H1838; conditions: NCI-H1838, lung, NSCLC, 72 hours
Description: as §1

[20] = system: NCI-H1975; conditions: NCI-H1975, lung, NSCLC, 72 hours
Description: as §1

[21] = system: NCI-H358; conditions: NCI-H358, lung, NSCLC, 72 hours
Description: as §1

[22] = system: NCI-H441; conditions: NCI-H441, lung carcinoma, 72 hours
Description: as §1

[23] = system: SK-N-AS; conditions: brain, neuroblastoma, 72 hours
Description: as §1

[24] = system: SK-N-BE(2); conditions: neuroblastoma, 72 hours
Description: as §1

[25] = system: SK-N-SH; conditions: brain, neuroblastoma, 72 hours
Description: as §1

[26] = system: SNU-475; conditions: SNU-475, liver, hepatocellular carcinoma, 72 hours
Description: as §1

[27] = system: SNU-739; conditions: SNU-739, liver, hepatocellular carcinoma, 72 hours
Description: as §1

[28] = system: SNU-761; conditions: SNU-761, lung carcinoma, 72 hours
Description: as §1

[29] = system: SW620; conditions: SW620, colon carcinoma, 72 hours
Description: as §1

[30] = system: SW948; conditions: SW948, colon carcinoma, 72 hours
Description: as §1

[31] = system: T47D; conditions: breast carcinoma, 72 hours
Description: as §1

[32] = system: U118-MG; conditions: brain, glioblastoma, 72 hours
Description: as §1

[33] = system: U251; conditions: U251, brain, glioblastoma, 72 hours
Description: as §1

[34] = system: U87-MG; conditions: brain, glioblastoma, 72 hours
Description: as §1

[35] = system: U87/DK; conditions: brain, glioblastoma, 72 hours
Description: as §1

CCN1CCN(Cc2ccc(Nc3ncc(F)c(-c4cc(F)c5nc(C)n(C(C)C)c5c4)n3)nc2)CC1 [Abemaciclib, abemaciclib, reference compound]
IC50 ([1]; Homo sapiens): 32 nM | IC50 ([2]; Homo sapiens): 432 nM | IC50 ([3]; Homo sapiens): 13 nM | IC50 ([4]; Homo sapiens, DLD2): 237 nM | IC50 ([5]; Homo sapiens): > 10000 nM | IC50 ([6]; Homo sapiens): 16 nM | IC50 ([7]; Homo sapiens): 71 nM | IC50 ([8]; Homo sapiens, HCT-15): 294 nM | IC50 ([9]; Homo sapiens, HCT-8): 384 nM | IC50 ([10]; Homo sapiens): 389 nM | IC50 ([11]; Homo sapiens): 4950 nM | IC50 ([12]; Homo sapiens): 76 nM | IC50 ([13]; Homo sapiens, LN-229): 35 nM | IC50 ([14]; Homo sapiens): 96 nM | IC50 ([15]; Homo sapiens): 1770 nM | IC50 ([16]; Homo sapiens): 1250 nM | IC50 ([17]; Homo sapiens): 72 nM | IC50 ([18]; Homo sapiens): 93 nM | IC50 ([19]; Homo sapiens): 90 nM | IC50 ([20]; Homo sapiens): 112 nM | IC50 ([21]; Homo sapiens): 44 nM | IC50 ([22]; Homo sapiens): 40 nM | IC50 ([23]; Homo sapiens): 138 nM | IC50 ([24]; Homo sapiens, SKNBE2, brain): 133 nM | IC50 ([25]; Homo sapiens): 80 nM | IC50 ([26]; Homo sapiens): 195 nM | IC50 ([27]; Homo sapiens): 383 nM | IC50 ([28]; Homo sapiens): 54 nM | IC50 ([29]; Homo sapiens, SW-620): 10 nM | IC50 ([30]; Homo sapiens): 586 nM | IC50 ([31]; Homo sapiens): 12 nM | IC50 ([32]; Homo sapiens, U-118-MG): 86 nM | IC50 ([33]; Homo sapiens, U-251): 151 nM | IC50 ([34]; Homo sapiens, U-87 MG): 106 nM | IC50 ([35]; Homo sapiens): 15 nM

CC1=Nc2c(F)cc(-c3nc(Nc4ccc(C5CCN(C)CC5)cn4)ncc3F)cc2C12CCCC2 [GLR2007]
IC50 [1]: 18 nM | IC50 [2]: 194 nM | IC50 [3]: 6 nM | IC50 [4]: 33 nM | IC50 [5]: 3960 nM | IC50 [6]: 15 nM | IC50 [7]: 30 nM | IC50 [8]: 43 nM | IC50 [9]: 81 nM | IC50 [10]: 143 nM | IC50 [11]: 2010 nM | IC50 [12]: 38 nM | IC50 [13]: 17 nM | IC50 [14]: 160 nM | IC50 [15]: 2730 nM | IC50 [16]: 1940 nM | IC50 [17]: 43 nM | IC50 [18]: 3 nM | IC50 [19]: 48 nM | IC50 [20]: 10 nM | IC50 [21]: 17 nM | IC50 [22]: 7 nM | IC50 [23]: 66 nM | IC50 ([24]; brain): 130 nM | IC50 [25]: 32 nM | IC50 [26]: 85 nM | IC50 [27]: 100 nM | IC50 [28]: 8 nM | IC50 [29]: 10 nM | IC50 [30]: 189 nM | IC50 [31]: 1 nM | IC50 [32]: 23 nM | IC50 [33]: 53 nM | IC50 [34]: 16 nM | IC50 [35]: 3 nM
